Experimental data published in patent US9839214B2, “Solavetivone and 5-epi-beta-vertivone as pest repellants and pesticides” (EVOLVA, INC., priority 2012, dated 2017).

How the values were obtained:
[1] = tested on: adult bed bugs (Cimex lectularius); assay: Bed bug repellency on half-treated filter paper in Petri dish chambers, Day 1; type: in vivo; conditions: for Repellancy / Repellancy, Averages: 0.5% active and 0.1% BHT in acetone on filter paper; for Repellancy / Repellancy, Averages / # bed bugs on the treated filter paper / # bed bugs on the treated filter paper, Averages: Day 1; for Repellancy: 50 bed bugs; for Repellancy, Averages / # bed bugs on the treated filter paper, Averages: average of 0.5-24 hr readings; for # bed bugs on the treated filter paper / # bed bugs on the treated filter paper, Averages: 0.5% active and 0.1% BHT in acetone, of 50 bed bugs; for time for which bed bugs are repelled following treatment: 0.5% active, Day 1 test
Procedure: A formulation, containing 0.5% solavetivone and 0.1% butylated hydroxytoluene (BHT) in acetone was tested for efficacy for repelling adult bed bugs (Cimex lectularius). Treatment chambers were created by cutting a circular hole in the bottom of 9-cm Petri dishes. A fine mesh nylon cloth was then glued to Petri dishes, covering the holes. The chambers were formed using the inverted Petri dishes with the screened bottoms serving as the tops and the lids forming the base of the chambers. The lids were secured with rubber bands. Five semi-circular pieces of filter paper, with a diameter of 9 cm were arranged so that they were evenly spaced on a sheet of aluminum foil. One (1) mL of 0.5% solavetivone solution, stored at ambient temperature and humidity, was applied to the filter papers. Five untreated semi-circular pieces were marked with the letter “c”, for control, on both sides in pencil or solvent resistant ink. One solavetivone-treated filter paper and one untreated filter paper were placed with the flat sides against each other, creating a full circle, in the lids of five 9-cm Petri dishes, serving as the treatment chambers described above, such that the entire surface of the lid was covered. Prior to addition of the bed bugs, the filter papers were confirmed to be completely dry and free of any residual acetone odor. Ten (10) bed bugs, having received a blood meal no more than 7 days before, were placed onto the untreated piece of paper and covered with the ventilated base of the Petri dish. The containers of each replicate were then kept at ambient laboratory temperature and humidity for the duration of the study. The distribution of the bed bugs on the treated and untreated filter papers was recorded at 0.5, 1, 1.5, 2, and 24 hours after being placed in the containers. Observations were made in darkness with the aid of a red lens flashlight. Gloves and a dust mask were worn by the observer to reduce detection of the bed bugs and to minimize disturbance caused by the observer. Five additional treatment chambers were created as described above, except the treated filter paper was soaked with acetone with 0.1% BHT (control treatment), instead of the 0.5% solavetivone solution. Bed bug distribution in the control chambers were recorded as described for the treatment condition. The solavetivone treatment repellency was calculated from the following equation: R=[(C−T)/C]*100, where R is the % repellency, C is the fraction of bed bugs on the acetone-treated filter papers, and T is the fraction of bed bugs on the solavetivone-treated filter papers. […] A formulation, containing 0.5% 5-epi-β-vetivone and 0.1% butylated hydroxytoluene (BHT) in acetone was tested for efficacy for repelling adult bed bugs (Cimex lectularius). Treatment chambers were prepared as described in Example 1A. Five semi-circular pieces of filter paper, with a diameter of 9 cm were arranged so that they were evenly spaced on a sheet of aluminum foil. One (1) mL of 0.5% 5-epi-β-vetivone solution, stored at ambient temperature and humidity, was applied to the filter papers. Five untreated semi-circular pieces were marked with the letter “c”, for control, on both sides in pencil or solvent resistant ink. One 5-epi-β-vetivone-treated filter paper and one untreated filter paper were placed with the flat sides against each other, creating a full circle, in the lids of five 9-cm Petri dishes, serving as the treatment chambers described above, such that the entire surface of the lid was covered. Prior to addition of the bed bugs, the filter papers were confirmed to be completely dry and free of any residual acetone odor. Ten (10) bed bugs, having received a blood meal no more than 7 days before, were placed onto the untreated piece of paper and covered with the ventilated base of the Petri dish. The containers of each replicate were then kept at ambient laboratory temperature and humidity for the duration of the study. […]

[2] = tested on: bed bug (Cimex lectularius); assay: Extended bed bug repellency, same treated chambers with new bed bugs, Day 2; type: in vivo; conditions: for Repellancy / Repellancy, Averages: 0.5% active and 0.1% BHT in acetone on filter paper; for Repellancy / # bed bugs on the treated filter paper: Day 2, new bed bugs; for Repellancy: 50 bed bugs; for Repellancy, Averages / # bed bugs on the treated filter paper, Averages / time for which bed bugs are repelled following treatment: Day 2; for Repellancy, Averages / # bed bugs on the treated filter paper, Averages: average of 0.5-24 hr readings; for # bed bugs on the treated filter paper / # bed bugs on the treated filter paper, Averages: 0.5% active and 0.1% BHT in acetone, of 50 bed bugs; for time for which bed bugs are repelled following treatment: 0.5% active, extended test
Procedure: The bed bug (Cimex lectularius) treatment chambers described in part A above were used to test the duration of 0.5% solavetivone in acetone repellent effects. At the end of 24 hours, the old bed bugs were removed from each Petri dish and 10 new bed bugs were added to each dish, for a total of 50 bed bugs. The distribution of the new set of bed bugs was recorded at 0.5, 1, 1.5, 2, and 24 hours after their introduction to the chamber (Day 2). Observations were made and repellency was calculated as described in Section A above. […] The bed bug (Cimex lectularius) treatment chambers described in part A above were used to test the duration of 0.5% 5-epi-β-vetivone in acetone repellent effects. At the end of 24 hours, the old bed bugs were removed from each Petri dish and 10 new bed bugs were added to each dish, for a total of 50 bed bugs. The distribution of the new set of bed bugs was recorded at 0.5, 1, 1.5, 2, and 24 hours after their introduction to the chamber (Day 2). Observations were made and repellency was calculated as described in Section A above.

SMILES: CC1=CC(=O)C[C@@H](C)[C@@]12CCC(=C(C)C)C2 [5-epi-β-vetivone]
- Repellancy ([1]; 0.5 hr): 88.0%
- Repellancy ([1]; 1.0 hr): 94.0%
- Repellancy ([1]; 1.5 hr): 98.0%
- Repellancy ([1]; 2.0 hr): 96.0%
- Repellancy ([1]; 24.0 hr): 100.0%
- Repellancy, Averages [1]: 95.2%
- # bed bugs on the treated filter paper ([1]; 0.5 hr): 6
- # bed bugs on the treated filter paper ([1]; 1.0 hr): 3
- # bed bugs on the treated filter paper ([1]; 1.5 hr): 1
- # bed bugs on the treated filter paper ([1]; 2.0 hr): 2
- # bed bugs on the treated filter paper ([1]; 24.0 hr): 0
- # bed bugs on the treated filter paper, Averages [1]: 2.4
- time for which bed bugs are repelled following treatment [1]: at least 24 hours
- Repellancy ([2]; 0.5 hr after introduction): 92.0%
- Repellancy ([2]; 1.0 hr after introduction): 94.0%
- Repellancy ([2]; 1.5 hr after introduction): 94.0%
- Repellancy ([2]; 2.0 hr after introduction): 92.0%
- Repellancy ([2]; 24.0 hr after introduction): 96.0%
- Repellancy, Averages [2]: 93.6%
- # bed bugs on the treated filter paper ([2]; 0.5 hr): 4
- # bed bugs on the treated filter paper ([2]; 1.0 hr): 3
- # bed bugs on the treated filter paper ([2]; 1.5 hr): 3
- # bed bugs on the treated filter paper ([2]; 2.0 hr): 4
- # bed bugs on the treated filter paper ([2]; 24.0 hr): 2
- # bed bugs on the treated filter paper, Averages [2]: 3.2
- time for which bed bugs are repelled following treatment [2]: at least 48 hours

SMILES: C=C(C)[C@@H]1CC[C@@]2(C1)C(C)=CC(=O)C[C@H]2C [Solavetivone, solavetivone]
- Repellancy ([1]; 0.5 hr): 92.0%
- Repellancy ([1]; 1.0 hr): 90.0%
- Repellancy ([1]; 1.5 hr): 92.0%
- Repellancy ([1]; 2.0 hr): 96.0%
- Repellancy ([1]; 24.0 hr): 98.0%
- Repellancy, Averages [1]: 93.6%
- # bed bugs on the treated filter paper ([1]; 0.5 hr): 4
- # bed bugs on the treated filter paper ([1]; 1.0 hr): 5
- # bed bugs on the treated filter paper ([1]; 1.5 hr): 4
- # bed bugs on the treated filter paper ([1]; 2.0 hr): 2
- # bed bugs on the treated filter paper ([1]; 24.0 hr): 1
- # bed bugs on the treated filter paper, Averages [1]: 3.2
- time for which bed bugs are repelled following treatment [1]: at least 24 hours
- Repellancy ([2]; 0.5 hr after introduction): 96.0%
- Repellancy ([2]; 1.0 hr after introduction): 96.0%
- Repellancy ([2]; 1.5 hr after introduction): 88.0%
- Repellancy ([2]; 2.0 hr after introduction): 90.0%
- Repellancy ([2]; 24.0 hr after introduction): 90.0%
- Repellancy, Averages [2]: 92.0%
- # bed bugs on the treated filter paper ([2]; 0.5 hr): 2
- # bed bugs on the treated filter paper ([2]; 1.0 hr): 2
- # bed bugs on the treated filter paper ([2]; 1.5 hr): 6
- # bed bugs on the treated filter paper ([2]; 2.0 hr): 5
- # bed bugs on the treated filter paper ([2]; 24.0 hr): 5
- # bed bugs on the treated filter paper, Averages [2]: 4.0
- time for which bed bugs are repelled following treatment [2]: at least 48 hours
